Assay results published in paper PMC9413271, “Anti-Obesity Evaluation of Averrhoa carambola L. Leaves and Assessment of Its Polyphenols as Potential α-Glucosidase Inhibitors” (Molecules, 2022).
“Also recorded” adds a separate entry of the source.

Target: α-glucosidase
Assay: In vitro α-glucosidase inhibitory assay
Format: biochemical
Set-up: key to IC50 (α-glucosidase inhibition), dash = inactive: (-) indicates inactive compounds
Settings: for IC50 / IC50 (α-glucosidase inhibition), dash = inactive: sucrose substrate, 37 °C, 30 min, n = 3; for IC50: read-out: IC50 (α-glucosidase inhibition); for α-glucosidase inhibitory activity (in words): in vitro
Method: The assay of α-glucosidase inhibitory activity of compounds was adopted from. Briefly, 100 μL of DMSO and 100 μL of α-glucosidase enzyme (5 U/mL in 0.15 M HEPES buffer) were added to 100 μL substrate (0.1 M sucrose solution dissolved into 0.15 M HEPES buffer). The mixture was vortexed for 5 sec and then incubated at 37 °C for 30 min to allow for enzymatic reaction. After incubation, the reaction was stopped by heating at 100 °C for 10 min in a block incubator. The formation of glucose was determined by means of glucose oxidase method, using a BF-5S Biosensor (Oji Scientific Instruments, Hyogo, Japan). Mathematically, α-glucosidase inhibitory activity of each sample was calculated according to this equation: (Average value of control (Ac) − average value of the sample (As))/Ac × 100.
The IC50 values were calculated from plots of log concentration of inhibitor concentration against the percentage inhibition curves, using Microsoft Excel 2016. The data were expressed as mean ± standard deviation (SD) of at least three independent experiments (n = 3).

| Compound | IC50 | α-glucosidase inhibitory activity (in words) | IC50 (α-glucosidase inhibition), dash = inactive |
| --- | --- | --- | --- |
| O=C(CCc1ccc(O)cc1)c1c(O)cc(O)cc1O [Phloretin, reference compound] | 110.4 ± 0.06 µM |  |  |
| O=c1cc(-c2ccc(O)cc2)oc2cc(O)c(C3OC(CO)C(O)C(O)C3O)c(O)c12 [Compound 3, apigenin 6-C-β-D-galactopyranoside] | 439 µM | Potent inhibition |  |
| C[C@H]1O[C@@H](Oc2cc3oc(-c4ccc(O)cc4)cc(=O)c3c(O)c2[C@H]2C[C@@H](O)[C@@H](O)[C@@H](CO)O2)[C@H](O)[C@@H](O)[C@@H]1O [Compound 1, apigenin 6-C-(2-deoxy-β-D-galactopyranoside)-7-O-β-D-quinovopyranoside] | 613 µM |  |  |
| CC(=O)OC1C(C)OC(c2c(O)cc(OC3OC(CO)C(O)C3OC3OC(C)C(O)C(O)C3O)c(C(=O)CCc3ccc(O)cc3)c2O)C(OC(=O)C=Cc2ccc(O)cc2)C1OC1OC(C)C(O)C(O)C1O (centres unmarked) [Compound 11, Mix of 4″-O-acetyl-carambolaside P and 4″-O-acetyl-carambolaside O] |  | inactive | - |
| CC1OC(c2c(O)cc(OC3OC(CO)C(O)C3O)c(C(=O)CCc3ccc(O)cc3)c2O)C(O)C(O)C1OC1OC(CO)C(O)C(O)C1O (centres unmarked) [Compound 5, carambolaside M] |  | inactive | - |
| CC1OC(OC2C(Oc3cc(O)c(C4OC(C)C(O)C(OC5OC(C)C(O)C(O)C5O)C4OC(=O)C=Cc4ccccc4)c(O)c3C(=O)CCc3ccc(O)cc3)OC(CO)C2O)C(O)C(O)C1O (centres unmarked) [Compound 7, carambolaside J] |  | inactive | - |
| CC(=O)OC1C(C)OC(c2c(O)cc(OC3OC(CO)C(O)C3OC3OC(C)C(O)C(O)C3O)c(C(=O)CCc3ccc(O)cc3)c2O)C(OC(=O)C=Cc2ccccc2)C1OC1OC(C)C(O)C(O)C1O [Compound 8, phloretin 3′-C-(2-O-(E)-cinnamoyl-3-O-β-D-fucopyranosyl-4-O-acetyl)-β-D-fucopyranosyl-6′-O-β-D fucopyranosyl-(1/2)-α-L arabinofuranoside] |  | inactive | - |
| CC1OC(OC2C(Oc3cc(O)c(C4OC(C)C(O)C(O)C4OC(=O)C=Cc4ccccc4)c(O)c3C(=O)CCc3ccc(O)cc3)OC(CO)C2O)C(O)C(O)C1O (centres unmarked) [Compound 9, carambolaside I] |  | inactive | - |
| O=C(CCc1ccc(O)cc1)c1c(O)cc(O)cc1O[C@@H]1O[C@H](CO)[C@@H](O)[C@H](O)[C@H]1O [Phloridzin, phloretin-2′-glucose, reference compound] | 853.1 ± 0.02 µM | moderate inhibitory activity |  |
| CC1OC(OC2C(Oc3cc(O)c(C4OC(C)C(O)C(O)C4OC(=O)C=Cc4ccc(O)cc4)c(O)c3C(=O)CCc3ccc(O)cc3)OC(CO)C2O)C(O)C(O)C1O (centres unmarked) [Compound 12, carambolaside Q] | 323.6 ± 0.06 µM | relatively strong activity; also recorded: Potent inhibition |  |
| CC1OC(OC2C(c3c(O)cc4oc(-c5ccc(O)cc5)cc(=O)c4c3O)OC(C)C(O)C2O)C(O)C(O)C1O [Compound 4, apigenin 6-C-α-L-rhamnopyranosyl-(1-2)-β-L-fucopyranoside] | 390 µM | Potent inhibition |  |
| CC1OC(OC2C(Oc3cc(O)c(C4OC(C)C(O)C(O)C4O)c(O)c3C(=O)CCc3ccc(O)cc3)OC(CO)C2O)C(O)C(O)C1O (centres unmarked) [Compound 6, carambolaside Ia] |  | inactive | - |
| O=c1cc(-c2ccc(O)cc2)oc2cc(O)cc(O)c12 [Apigenin, reference compound] | 85.6 ± 0.01 µM |  |  |
| O=c1cc(-c2ccc(O)c(O)c2)oc2cc(O)cc(O)c12 [Luteolin, reference compound] | 48.2 ± 0.02 µM |  |  |
| CC1OC(OC2C(c3c(O)cc4oc(-c5ccc(O)c(O)c5)cc(=O)c4c3O)OC(C)C(O)C2O)C(O)C(O)C1O [Compound 2, luteolin 6-C-α-L-rhamnopyranosyl-(1-2)-β-D-fucopyranoside] | 328 µM | highest inhibitory activity among all isolated flavone glycosides; also recorded: Potent inhibition |  |
